Legend:
Assay type in all cases: cell-based
Conditions in all cases: after 10, 20, 40 and 60 minutes at all dilutions 1:100, 1:200, 1:400, and 1:800
Candida albicans = assay: Antimicrobial activity by agar dilution, Candida albicans
Procedure: (§1) The antibacterial properties of the synthesized compound (pyridino-2,16-dioxapentacyclo[7.7.5.0^1,21.0^3,8.0^10,15]henicosa3(8),10,12,14-tetraene-7,20-dione) were studied by the method of agar dilution. Test solutions of each compound was prepared in concentration of 1% using dimethylformamide as a solvent. Then they were diluted in physiological solution to obtain the final experimental dilutions of 1:100, 1:200, 1:400, and 1:800. The effect of these substances were compared with furacillin in a controllable study. The testing microbes used were gram positive bacteria Staphylococcus aureus, gram negative bacteria Pseudomonas aeruginosa, Escherichia coli, and Candida albicans fungus. The experiments used for this survey were meat-pentonlu agar (EPA) for cultivation of bacteria and Saburo environment for fungi. Each experiment used 1 mL of test solution on each plate for 500 minutes. Two drops of emulsified with microbes feel were added. All experimental samples were taken from the agar after 10, 20, 40, 60 minutes in the environment on the basis of Patrk planted. Bacteria were cultivated at a temperature of 37° C. for 1 day and the mushroom was kept in a thermostat for […] at a temperature of 28° C. Then results were checked. Those of control and the antimicrobial activity for the synthesized compounds are listed in Table 1 below, with furacillin serving as a reference.

Pseudomonas aeruginosa = assay: Antimicrobial activity by agar dilution, Ps. aeruginosa
Procedure: as §1

Staphylococcus aureus = assay: Antimicrobial activity by agar dilution, St. Aereus
Procedure: as §1

Escherichia coli = assay: Antimicrobial activity by agar dilution, E. Coli
Procedure: as §1

O=C1CCCC2=C1C1c3cccnc3OC3(CCCC(=O)C13)O2 (stereo not shown) [pyridino-2,16-dioxapentacyclo[7.7.5.0^1,21.0^3,8.0^10,15]henicosa3(8),10,12,14-tetraene-7,20-dione]
higher inhibition activity: inhibition activity compared with Furacilin, Candida albicans (Candida albicans) | inhibition activity compared with Furacilin, Pseudomonas aeruginosa (Pseudomonas aeruginosa) | inhibition activity compared with Furacilin, Staphylococcus aureus (Staphylococcus aureus) | inhibition activity compared with Furacilin, Escherichia coli (Escherichia coli)

Reference: patent US11970505B1, “Pyridino-2,16-dioxapentacyclo[7.7.5.01,21.03,8.010,15]henicosa3(8),10,12,14-tetraene-7,20-dione as an antimicrobial compound” (KING FAISAL UNIVERSITY, priority 2023, dated 2024)
